Source: patent publication US4389412A, “Substituted cyclopropanecarboxylic acid esters and pesticidal compositions containing the same as active ingredient” (priority 1979, dated 1983)
In brackets after ≈: the same amount, converted by molar mass. Read-outs that look alike come from different tables or passages of the source.

How the values were obtained:
[1] = system: rice stem borers (Chilo suppressalis Walker); experiment: Mortality test with rice stem borers by topical application method; format: in vivo; details: 24 h; for mortality at 0.001 mg: read-out: Pesticidal effect, rice stem borer
Method: Mortality test with rice stem borers (Chilo suppressalis Walker) by topical application method
Using a microsyringe, 0.5 μl of the above solution was applied to the thoracic abdominal region of each final-instar larva of rice stem borer (Chilo suppressalis Walker). […] The test larvae were used in groups of 20 individuals each.

[2] = Fish toxicity test with carp; format: in vivo, Cyprinus carpio L; details: carp, water, 48 hrs., 21±1° C.; read-out: TLm, Carp (48 hrs.)
Method: Fish toxicity test with carp (Cyprinus carpio L)
An acetone solution of one of the test compounds as mentioned in Table 10 and Tween-20 (the same surfactant as mentioned hereinbefore) was prepared. To 50 liters of water (30 cm deep) in a glass tank was added the above acetone solution. The mixture was stirred thoroughly to prepare an aqueous solution containing the test compound in a predetermined concentration. This was used as a test water. Five carps (Cyprinus carpio L) with a body weight of about 6 g and a body length of about 6 cm were released into each test water which was maintained at 21±1° C. After 48 hours, the test fish was examined for death. The TLm (median tolerance limit, ppm) was determined. The test water was moderately aerated.

[3] = Toxicity test with water-fleas; format: in vivo, Daphnia pulex; details: water, 25±1° C., read-out: TLm, Water-flea (6 hrs.)
Method: Toxicity test with water-fleas (Daphnia pulex)
An acetone solution of one of the test compounds as mentioned in Table 10 and Tween-20 (the same surfactant as mentioned hereinbefore) was prepared. To 100 ml of water in a high-walled dish (9 cm in diameter, 7 cm deep) was added the above acetone solution. The mixture was stirred thoroughly to prepare an aqueous solution containing the test compound in a predetermined concentration. This was used as a test water. Twenty water-fleas (Daphnia pulex) were released into each test water which was maintained at 25±1° C. After 6 hours, the water-fleas were examined for deaths. The TLm (median tolerance limit, ppm) was determined.

carp and water flea = experiment: Fish toxicity ranking according to Japanese regulations; parameters: species or system Cyprinus carpio L; Daphnia pulex; details: from TLm for carp and water flea
Method: The above ranking with symbols A, B and C were determined according to Japanese regulations relative to application of agricultural chemicals, and these symbols are defined as follows: […]
A: TLm (48 hrs.) value >10 ppm for carp and TLm (3 hrs.) value >0.5 ppm for water flea, wherein toxicity to fishes is not observed by usual application.
B: TLm (48 hrs.) value 10-0.5 ppm for carp; or TLm (48 hrs.) value >10 ppm for carp and TLm (3 hrs.) value <0.5 ppm for water flea, wherein appreciable toxicity to fishes is not observed by usual application but may be observed when applied to wide area at one time.
C: TLm (48 hrs.) value <0.5 ppm for carp, wherein toxicity to fishes is so strongly observed by usual application that both the application method and application area are strictly restricted.

[4] = system: brown planthoppers (Nilaparvata lugens Stal); experiment: Utility Example-1: LC50 on adult brown planthoppers on dipped rice plants; format: in vivo; details: Nilaparvata lugens, 24 h, 25° C., read-out: Pesticidal activity LC50
Method: A 1% emulsifiable concentrate of each test compound as prepared by the procedure described in Formulation Example 2 was diluted with water to prepare a test solution of predetermined concentration.
Rice plants, 4 weeks after sowing (cultivated in a pot 6 cm in diameter, 7 seedlings) were dipped in the above solution and after allowing them to dry in the air, the pot was covered with a wire-mesh cage. Then, 30 adult brown planthoppers (Nilaparvata lugens Stal) were released into the cage and the pot was kept in a constant-temperature chamber at 25° C.

[5] = Fish toxicity safety factor (TLm divided by maximum concentration in cover water); parameters: species or system carp; details: in vivo, TLm / maximum concentration in cover water at LC50 application (100 l per 10 ares, 5 cm depth)
Method: To further confirm the low toxicity to fish and high pesticidal activity of Compounds (1) and (2) according to this invention as evidenced by the fish toxicity tests with carps and the above tests, fish toxicity safety factors were calculated from the fish toxicity and pesticidal test data. These fish toxicity safety factors are indicators of safety to fish inhabiting a paddy field to which Compounds (1) and (2) may be actually applied for pest control purposes.
It is first assumed that such a pesticidal solution would normally be applied at the rate of 100 l per 10 ares of paddy field. It is also assumed that a solution (100 l) corresponding to the LC50 of the compounds would be applied to 10 ares of a paddy field carrying a cover water with a depth of 5 cm above ground surface and that all the solution would then find its way into the cover water. The expected maximum concentration of the compound in the cover water is then calculated. The fish toxicity safety factor of a pesticidal compound is defined as the value obtained by dividing the TLm (ppm) of the particular compound by the maximum concentration of the compound in cover water. The meaning of the value of the fish toxicity safety factor being one (1) is that the maximum concentration of the particular compound in cover water corresponds to the TLm of said compound. It is understood that when the pesticidal compound having a fish toxicity safety factor value of less than one (1) is applied to a paddy field, it has a risk of destroying the fish inhabiting there, and that the higher the safety factor value, the higher is the safety of the compound to fish.
This fish toxicity safety factor will now be explained in further detailed by taking the trans-isomer of Compound (2) of this invention as an example.
On the other hand, the toxicity to fish of this compound is TLm >10 ppm. Therefore, by dividing the TLm (i.e. >10 ppm) by the above cover water maximum concentration (i.e. 0.36 ppm), we obtain a fish toxicity safety factor of >28. Thus, the concentration of the trans-isomerof Compound (2) which kills 50% of pests corresponds to less than 1/28 of the concentration of the same isomer which kills 50% of fish. In other words, this means that the trans-isomer of Compound (2) is extremely safe to fish.

[6] = system: green rice leafhoppers (Nephotettix cincticeps Uhler); experiment: Mortality test with green rice leafhoppers by topical application method; details: Nephotettix cincticeps, in Oryza sativa, 24 h; for mortality at 10 ng: read-out: Pesticidal effect, green rice leafhopper
Method: Mortality test with green rice leafhoppers (Nephotettix cincticeps Uhler) by topical application method
Then, the insects were kept at 25° C. with access to rice plant seedlings. The insects were used in groups of 15 individuals each.

[7] = system: tobacco cutworms (Prodenia litura Fabricius); experiment: Mortality test with tobacco cutworms by topical application method; format: in vivo; details: 24 h
Method: Mortality test with tobacco cutworms (Prodenia litura Fabricius) by topical application method
Using a microsyringe, 0.5 μl of the above solution was dripped onto the thoracic adbominal region of each of 3-instar tobacco cutworm (Prodenia litura Fabricius) larvae. […] The test larvae were used in groups of 20 individuals each.

[8] = Fish toxicity test with killifish; format: in vivo, Orizias latipes; details: water, killifish, 25±1° C., read-out: TLm (48 hrs.)
Method: Fish toxicity test with killifish (Orizias latipes)
An acetone solution of one of the test compounds as mentioned in Table 8 was prepared by adding said test compound to 15 ml of acetone. To 10 liters of water was added a predetermined amount of the above acetone solution and the mixture was stirred thoroughly to prepare an aqueous solution containing the test compound in a predetermined concentration. This was used as a test water. After the each test water was moderately aerated, ten killifishes (Orizias latipes) with a body weight of about 0.25 g and a body length of about 2.5 cm were released into said each test water which was maintained at 25±1° C. After 48 hours, the test fish was examined for death. The TLm (median tolerance limit, ppm) was determined.

[9] = Fish toxicity test with guppies; format: in vivo, Lebistes reticulatus; details: guppy, water, guppies, 20° C., read-out: TLm (48 hrs.)
Method: (§1) Fish toxicity test with guppies (Lebistes reticulatus)
(§2) To 5 liters of water were added 250 mg of Sorpol SM-200 (trademark, Toho Chemical Co., Ltd.) as a surfactant and 2.5 ml of an acetone solution containing one of the test compounds in a predetermined concentration. The mixture was stirred thoroughly to prepare a test water. Ten female guppies (Lebistes reticulatus) of from 3 to 4 months of age were released into the test water which was maintained at 20° C. and the TLm (median tolerance limit, ppm) was determined.

[10] = system: guppies (Lebistes reticulatus); experiment: Fish toxicity test with guppies; format: in vivo; details: Table 1; 48 hrs.
Method: as §1, §2

[11] = system: houseflies (Musca domestica); experiment: Mortality test with houseflies by topical application method; details: 24 h; for mortality at 0.001 mg: read-out: Pesticidal effect, housefly
Method: Mortality test with houseflies (Musca domestica) by topical application method
Each of the compounds according to this invention and the control compounds (Table 2) was accurately weighted and a 0.1% solution of each sample in acetone was prepared. Female adult houseflies (Musca domestica) resistant to organophosphorus pesticides, were anesthetized with ether and 0.5 μl or 1.0 μl of the above solution was micropipetted onto the prothoracic dorsal region of each insect. The insects were then put in a high-walled dish together with feed and the dish was covered with a wire-mesh cover and kept at a temperature of 25° C. The test insects were used in groups of 30 individuals each. After 24 hours the insects were examined for deaths and the percent mortality was calculated.

[12] = read-out: Pesticidal effect, tobacco cutworm

Row | Structure (SMILES) | mortality at 1 µg/larva [1] | mortality at 10 µg/larva [1] | LC50 at 48 h [2] | LC50 at 6 h [3] | Ranking (carp and water flea) | LC50 [4] | selectivity ratio [5] | mortality at 0.01 µg/female [6] | mortality at 0.1 µg/female [6] | mortality at 1 µg/female [6] | mortality at 10 ng [6] | mortality at 0.001 mg [1] | mortality at 0.0001 mg [7] | mortality at 0.0001 mg [7, 12] | LC50 at 48 h [8] | LC50 at 48 h [9] | Toxicity to fish TLm, guppy [10] | mortality at 0.5 µg/female [11] | mortality at 1 µg/female [11] | mortality at 0.001 mg [11]
1 | CC1(C)[C@H](C(=O)OC(C#N)c2cccc(Oc3ccc(Cl)cc3)c2)[C@@H]1C=C(Cl)Cl (relative stereo) [Compound (G) cis-] | 40% | 100% | 0.013 µg/mL (≈ 0.0288 µM) | 5 µg/mL (≈ 11.1 µM) | C (TLm (48 hrs.) value <0.5 ppm for carp, wherein toxicity to fishes is so strongly observed by usual application that both the application method and application area are strictly restricted.) | 620 µg/mL (≈ 1380 µM) | 0.01 | – | – | – | – | – | – | – | – | – | – | – | – | –
2 | CC1(C)C(C=C(Cl)Cl)C1C(=O)OC(C#N)c1cccc(Oc2ccc(Cl)cc2)c1 (stereo not drawn) [Compound (G) cis-/trans- = 50:50] | 90% | 100% | 0.04 µg/mL (≈ 0.0887 µM) | – | C (TLm (48 hrs.) value <0.5 ppm for carp, wherein toxicity to fishes is so strongly observed by usual application that both the application method and application area are strictly restricted.) | 450 µg/mL (≈ 998 µM) | 0.04 | 100% | 100% | 100% | 100% | 90% | 65% | 65% | 0.15 µg/mL (≈ 0.333 µM) | < 1 µg/mL | < 1.0 ppm | 100% | 100% | 100%
3 | CC1(C)C(C=C(Br)Br)C1C(=O)OC(C#N)c1cccc(Oc2ccccc2)c1 (centres unmarked) [Compound (D), Decamethrin] | 100% | 100% | 0.0051 µg/mL (≈ 0.0101 µM) | – | C (TLm (48 hrs.) value <0.5 ppm for carp, wherein toxicity to fishes is so strongly observed by usual application that both the application method and application area are strictly restricted.) | – | – | 100% | 100% | 100% | 100% | 100% | – | 100% | – | < 0.5 µg/mL | < 0.5 ppm | 100% | 100% | 100%
4 | CC1(C)[C@H](C=C(Cl)Cl)[C@H]1C(=O)OC(C#N)c1cccc(Oc2ccc(Cl)cc2)c1 (relative stereo) [Compound (G) trans-] | 85% | 100% | 0.09 µg/mL (≈ 0.2 µM) | 1.7 µg/mL (≈ 3.77 µM) | C (TLm (48 hrs.) value <0.5 ppm for carp, wherein toxicity to fishes is so strongly observed by usual application that both the application method and application area are strictly restricted.) | 380 µg/mL (≈ 843 µM) | 0.12 | – | – | – | – | – | – | – | – | – | – | – | – | –
5 | CC1(C)C(C=C(Cl)Cl)C1C(=O)OCc1cccc(Oc2ccc(Cl)cc2)c1 (stereo not drawn) [Compound (1) cis-/trans- = 20:80] | – | – | 2.6 µg/mL (≈ 6.11 µM) | > 40 µg/mL | B (TLm (48 hrs.) value 10-0.5 ppm for carp; or TLm (48 hrs.) value >10 ppm for carp and TLm (3 hrs.) value <0.5 ppm for water flea, wherein appreciable toxicity to fishes is not observed by usual application but may be observed when applied to wide area at one time.) | 520 µg/mL (≈ 1220 µM) | 2.5 | – | – | – | – | – | – | – | – | – | – | – | – | –
